The source made the active and inactive calls.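 The calls were made as follows: active = mean IC50 at or below 10 µM; inactive = the rest.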
These compounds were tested on H9c2 cardiomyocytes, H2O2 protection, ATPLite viability, 2 h (assay: protection of H9c2 cardiomyocytes from H2O2 death, dose response, cell-based, ATPLite luminescence, set 2 (AID 602211);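 also: potency is for protection so actives keep ATP signal up against peroxide killing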).

Row | SMILES | IC50
1 | CC(=O)Nc1cc(-c2cccc(C(=O)N(C)C)c2)cn2c(-c3ccc(C(C)=O)cc3)cnc12 | 7.78 µM
2 | CC(=O)c1ccc(-c2cnc3c(NC=O)cc(-c4ccc(C(=O)NC5CC5)cc4)cn23)cc1 | 3.38 µM
3 | NC(=O)c1nsc(C(=O)N(c2ccccc2F)C(C(=O)NCc2ccc(F)cc2)c2ccc(O)cc2)c1N (stereo not given) | 0.94 µM
4 | O=C(N/N=C\c1ccccn1)c1cccc(C(=O)N/N=C\c2ccccn2)n1 | 2.07 µM
5 | COc1ccc(-c2cc(C(=O)NNC(=O)c3csc(N4CCOCC4)n3)c3ccccc3n2)cc1 | 14.1 µM (inactive)
6 | Cc1ccc(C)c(C(=O)Nc2cc(C)nn2-c2nc(C)cc(C)n2)c1 | 65.6 µM (inactive)
7 | Cc1nc(NC(=O)c2cc3c(C)nn(-c4ccccc4)c3s2)sc1C(=O)Nc1ccccc1 | 2.7 µM
8 | CCn1nc(C(=O)NNC(=O)c2cc(Cl)ccc2OC)c2ccccc2c1=O | 30 µM (inactive)
9 | COc1ccccc1NC(=O)COc1ccc(C(=O)OCC(=O)NC(C)(C)C)cc1OC | 13.7 µM (inactive)
10 | Cc1[nH]c2ccccc2c1/C=N/NC(=O)c1cc(-c2cccs2)[nH]n1 | 3.62 µM
11 | CCOc1cccc(Nc2cc3n(c(=O)n2)CCc2cc(OC)c(OC)cc2-3)c1 | 23 µM (inactive)
12 | c1ccc(N2CCOCC2)c(Nc2nc3ccccc3n3cnnc23)c1 | 5.28 µM
13 | Cc1c(O)ccc2c(-c3ccccc3)cc(=O)oc12 | > 79 µM (inactive)
14 | Cn1nc(C(=O)Nc2nc(-c3ccccn3)cs2)c2ccccc2c1=O | 6.13 µM
15 | CCOC(=O)c1ccccc1OCc1cc(/C=N/NC(=O)c2cccnc2)ccc1OC | > 79 µM (inactive)
16 | COc1ccc(CCNC(=O)C(=O)NCC2CCCN2S(=O)(=O)c2ccccc2)cc1OC (stereo not given) | 6.18 µM
17 | COC(=O)c1cc(NC(=O)c2cc3ccccc3o2)cc(C(=O)OC)c1 | 5.42 µM
18 | COc1cc(-c2cc(NC(C)=O)c3ncc(-c4ccc(C(C)=O)cc4)n3c2)cc(OC)c1OC | 6.06 µM
19 | CC(=O)c1ccc(-c2ccc(C(=O)Nc3nc(-c4ccccn4)cs3)o2)cc1 | 1.57 µM
20 | COc1ccc(-c2cc(C(=O)N(C)Cc3nc4ccccc4c(=O)[nH]3)c3ccccc3n2)cc1OC | 1.71 µM
21 | COc1cc(NC(=O)c2cc3ccccc3cc2OC)ccc1NC(=O)c1cccs1 | 3.59 µM
22 | CN(C)S(=O)(=O)c1ccc2[nH]cc(/C=C/c3nc4ccccc4c(=O)n3-c3ccccc3)c2c1 | 1.26 µM
23 | CCOc1ccc2[nH]c(=O)c(CN(Cc3nnnn3Cc3ccco3)C3CCCCC3)cc2c1 | > 79 µM (inactive)
24 | CCCCCCn1c(C)nc2c(c1=O)c1nc3ccccc3nc1n2/N=C/c1ccco1 | 4.85 µM

Row | SMILES | IC50
25 | O=C1NC(Cc2ccc(O)cc2)c2nc3ccc(F)cc3c(=O)n2-c2cc3ccccc3cc21 (stereo not given) | 3.72 µM
26 | COc1ccc(C(C(=O)NCc2ccccc2)N(Cc2cccs2)C(=O)c2cnccn2)cc1 (stereo not given) | 25 µM (inactive)
27 | COc1cc(C(=O)N/N=C/c2ccc(OC(=O)c3cccc(C)c3)c(OC)c2)ccc1O | 3.16 µM
28 | Cc1nc2ccccc2c2c(N)c3ccccc3n12 | 14.6 µM (inactive)
29 | O=C(COC(=O)c1cc(-c2cccnc2)nc2ccccc12)Nc1ccc(F)cc1F | 17.8 µM (inactive)
30 | COc1cc(NC(=O)c2ccc(-c3cn[nH]c3)c3ccoc23)cc(OC)c1OC | 3.24 µM
31 | COc1ccc(-n2cc(-c3ccccc3)c3c(N4CCOCC4)ncnc32)cc1 | 4.02 µM
32 | COC(=O)c1ccc(N)c(N=CC2=C(O)CC(C)(C)CC2=O)c1 | 7.63 µM
33 | O=C(NCCc1c[nH]c2ccccc12)C(=O)NCC(c1ccco1)N1CCN(c2ccccc2F)CC1 (stereo not given) | 5.64 µM
34 | O=C(COC(=O)c1c2c(nc3ccccc13)/C(=C/c1cccc([N+](=O)[O-])c1)CCC2)NC1CCS(=O)(=O)C1 (stereo not given) | 4.47 µM
35 | O=C(CN(c1ccc2c(c1)OCCO2)S(=O)(=O)c1ccccc1)Nc1ccc2c(c1)OCO2 | 4.32 µM
36 | COc1ccnc(Oc2ccccc2)c1C(=O)N/C=N/OCc1ccc(F)cc1Cl | > 79 µM (inactive)
37 | Cc1ccc(S(=O)(=O)N2CCN(C(=O)c3cc(=O)[nH]c4ccccc34)CC2)c(C)c1 | 2.24 µM
38 | N#C/C(=C\Nc1ccc2c(c1)OCCO2)c1nc2ccccc2[nH]1 | 9.06 µM
39 | CC(=O)c1ccc(-c2cnc3c(NC=O)cc(-c4cccc(NS(C)(=O)=O)c4)cn23)cc1 | 8.18 µM
40 | O=C(Nc1nc(-c2cc(F)ccc2F)cs1)C1=NN(c2ccccc2)C(=O)CC1 | 6.26 µM
41 | O=C(NCC(=O)N(Cc1ccccc1)C(C(=O)NC1CCCCC1)c1ccco1)c1ccco1 (stereo not given) | 38.7 µM (inactive)
42 | CCOC(=O)C1CCN(C(=O)c2ccc3c(=O)n4nc(Nc5ccccc5OC)sc4nc3c2)CC1 | 6.31 µM
43 | CCOC(=O)C1=C(CC)Nc2ccccc2N=C1NC(=O)c1ccc(S(=O)(=O)N(C)C)cc1 | 4.8 µM
44 | CC(C)(C)OC(=O)C[C@@H]1C/C=C\C[C@@H](CC(=O)N[C@H](CO)Cc2ccccc2)C(=O)NC[C@@H](c2ccccc2)OC1=O | 17.6 µM (inactive)
45 | COC(=O)c1cc(OC)c(OC)cc1NC(=O)c1ccc(C)o1 | 3.98 µM
46 | O=C(C[C@@H]1C/C=C/CC[C@@H](Cc2ccc(F)cc2)C(=O)O[C@@H](c2ccccc2)CNC1=O)NCCO | 10.9 µM (inactive)
47 | NC(=O)c1oc2ccccc2c1NC(=O)c1ccco1 | 21.4 µM (inactive)
48 | CC(=O)NCCNc1nc2c(-c3ccccc3)nnn2c2ccccc12 | 2.56 µM

Row | SMILES | IC50
49 | CCC(=O)Oc1cccc(C(=O)Nc2ccc(-c3nnc(-c4ccco4)o3)cc2)c1 | > 79 µM (inactive)
50 | COCCCNC(=O)/C(C#N)=C1\N=C(NC(=O)c2cccs2)c2ccccc21 | > 79 µM (inactive)
51 | COC(=O)c1cc2ccc(OC)cc2c2cc(OC)c(OC)cc12 | > 79 µM (inactive)
52 | Cc1ccc(Cn2c(CCNc3nc(-c4ccc(Cl)c([N+](=O)[O-])c4)cs3)nc3cc(C(=O)NCCCO)ccc32)cc1 | 1.48 µM
53 | CC(C)=NNc1cnnc2ccc([N+](=O)[O-])cc12 | 4.85 µM
54 | CCOc1cccc(-c2nn3c(-c4ccccn4)nnc3s2)c1 | 6.55 µM
55 | COc1cccc(C(=O)Nc2cc(C)c3c(=O)oc4ccccc4c3n2)c1 | 7.02 µM
56 | C[C@H](CO)N1C[C@H](C)[C@@H](CN(C)S(=O)(=O)c2cccs2)Oc2ccc(NC(=O)Nc3ccccc3)cc2C1=O | 16 µM (inactive)
57 | CC(C)OCCCNC(=O)CCC(=O)NNc1nc2ccccc2c2nc(-c3ccccc3)nn12 | 19.8 µM (inactive)
58 | CCn1nc(C(=O)Nc2nc(-c3ccccn3)cs2)c2ccccc2c1=O | 3.37 µM
59 | CC(=O)c1cccc(Nc2nc3ccccc3n3cnnc23)c1 | 3.87 µM
60 | CC(=O)Nc1ccc(-c2csc(NC(=O)Nc3ccccc3)n2)cc1 | 40.6 µM (inactive)
61 | COc1cc(/C=C/c2nc3ccccc3c(=O)n2-c2ccccc2O)ccc1O | 9.9 µM
62 | Cn1c(=O)n(CCc2ccccc2)c(=O)c2c1nc1n2CCCN1Cc1ccccc1 | > 79 µM (inactive)
63 | Fc1ccc(-n2cc(-c3ccccc3)c3c(N4CCOCC4)ncnc32)cc1 | 6.27 µM
64 | C=C1C(C)C2C(Cc3ccccc3)NC(=O)C23OC(=O)/C=C/C(O)CCCC(C)C/C=C/C3C1O (stereo not given) | 0.611 µM
65 | O=C(NCC(=O)N(Cc1cccs1)C(C(=O)NC1CCCC1)c1ccco1)c1cccs1 (stereo not given) | 6.37 µM
66 | CC(C)(C)NC(=O)c1cc(NC(=O)c2cccs2)cc(NC(=O)c2cccs2)c1 | 8.4 µM
67 | CCOC(=O)C1=C(C)NC(C)=C(C(=O)OCC)C1C(=O)OCC(=O)NC1CCCCC1 | 3.32 µM
68 | CCOC(=O)c1cc2c(=O)n3cccc(C)c3nc2n(CCCOC)c1=NC(=O)c1cccnc1 | 2.87 µM
69 | Cn1c(=O)c2[nH]c(NN=Cc3cccc(Br)c3)nc2n(C)c1=O | 4.39 µM
70 | C#CCOc1nc(Nc2cccc([N+](=O)[O-])c2)nc(OCC#C)n1 | > 79 µM (inactive)
71 | O=c1[nH]c(CSc2nnc(-c3cccnc3)n2C2CCCCC2)nc2ccccc12 | 48.2 µM (inactive)
72 | COc1cc(-c2cc(C(=O)N3CCN(c4ccccn4)CC3)c3ccccc3n2)cc(OC)c1OC | 3.56 µM

Row | SMILES | IC50
73 | CCOC(=O)c1cc2c(=O)n3ccccc3nc2n(Cc2ccco2)c1=NC(=O)c1cccnc1 | 19 µM (inactive)
74 | Cn1c2ccccc2c2cc(/C=N/NC(=O)c3cc(O)ccc3O)ccc21 | > 79 µM (inactive)
75 | COc1ccc(OC)c(/C=N/Nc2nncn2/N=C/c2cc(OC)ccc2OC)c1 | 6.17 µM
76 | CCN(CC)C(=O)c1ccc(-c2nnc(Nc3ccc(O)cc3)c3ccccc23)cc1 | 17.6 µM (inactive)
77 | O=C(NCC(=O)N(Cc1cccs1)C(C(=O)NC1CCCCC1)c1ccco1)c1cccs1 (stereo not given) | 3.23 µM
78 | CCOc1ccc(CCNC(=O)c2cc3c(C)nccc3[nH]c2=O)cc1OCC | 42.9 µM (inactive)
79 | CN(CC1COc2ccccc2O1)c1nc(-c2cccnc2)nc2ccccc12 (stereo not given) | 25.9 µM (inactive)
80 | COC(=O)c1ccc2c(=O)[nH]c(COC(=O)c3[nH]c(C)c(C(C)=O)c3C)nc2c1 | 5.29 µM
81 | O=C(Nc1nc(-c2ccccn2)cs1)c1ccc(-c2ccccc2F)o1 | 3 µM
82 | c1cncc(-c2nc(NCC3COc4ccccc4O3)c3ccccc3n2)c1 (stereo not given) | > 79 µM (inactive)
83 | COc1cc(NC(=O)c2c(OC)cccc2OC)ccc1NC(=O)c1cc2ccccc2o1 | 15.1 µM (inactive)
84 | CCOC(=O)c1ccc(-c2ccc(/C=C(\C#N)C(=O)NCC3CCCO3)o2)cc1 (stereo not given) | > 79 µM (inactive)
85 | Cc1ccc(-c2nnc3ccc(SCC(=O)N4CCCc5ccccc54)nn23)cc1 | > 79 µM (inactive)
86 | CC(=O)c1cccc(NC(=O)Nc2ccc3c(c2)N(C)C(=O)CS3)c1 | 3.53 µM
87 | Cn1c(=O)[nH]c(=O)c2c1nc(Br)n2CC(O)COc1ccc(Cl)cc1 (stereo not given) | 2.44 µM
88 | COc1ccc(/C=N/NC(=O)c2ccc(COc3cccc4cccnc34)cc2)cc1OC | 3.89 µM
89 | NC(=O)c1cccc(-c2coc3c(C(=O)NCCc4ccccc4)cccc23)c1 | > 79 µM (inactive)
90 | COc1ccc(OCC(O)Cn2c(Nc3cccc(C)c3)nc3c2c(=O)n(C)c(=O)n3C)cc1 (stereo not given) | 12.9 µM (inactive)
91 | COc1cc(/C=N/n2nnnc2Nc2ccccc2)cc(OC)c1OC | 9.53 µM
92 | COc1ccc(C(C(=O)NC2CCCC2)N(C(=O)c2snc(C(N)=O)c2N)c2cccc(O)c2)cc1 (stereo not given) | 12.7 µM (inactive)
93 | O=C(c1ccc(-c2nc3ccccc3s2)o1)N1CCN(c2ccccc2O)CC1 | 5.48 µM
94 | COC(=O)c1ccc(C(NC(=O)OCc2ccccc2)/C(C)=C/[C@@H](C)C(=O)NCc2ccc(OC)c(OC)c2)cc1 (stereo not given in full) | > 79 µM (inactive)
95 | COc1ccc(C(=O)Nc2cccc(/C(C)=N/NC(=O)c3ccc([N+](=O)[O-])c(C)c3)c2)cc1OC | 4.93 µM
